Measurements reported in patent publication EP4656630A1, “NOVEL COMPOUND AS LYSYL-TRNA SYNTHETASE 1 INHIBITOR, AND USE THEREOF” (Zymedi Co., Ltd., priority 2023, dated 2024).

What was measured:
Raw 264.7 cells = test: LN (Laminin 421)-induced immune cell migration, Transwell; assay type: cell-based; conditions: Mus musculus, RAW264.7; 3 µM compound, LN (Laminin 421 1 µg/ml), 24 hours, % inhibition compared to control group; read-out: Migration inhibitor % (3uM)
Procedure: Cell migration was assessed based on the method described in the prior literature (Park, S. G. et al. Human lysyl-tRNA synthetase is secreted to trigger proinflammatory response. Proceedings of the National Academy of Sciences, 2005, 102.18: 6356-6361.). The specific experimental method is as follows. A Transwell (Corning#3421-5µm pore) was coated with gelatin (0.5mg/ml), and then Raw 264.7 cells (1 x 10^5 cells/well) were seeded in the upper chamber. Serum-free medium (Serum Free DMEM, 500 µl) containing LN (Laminin 421 1 µg/ml) was added to the lower chamber. Each compound was treated at a concentration of 3µM in the upper chamber. After 24 hours, the cells were fixed with 70% methanol for 30 minutes and stained with 50% hematoxylin for 30 minutes. Non-migrating cells on the upper side of the membrane were removed with a cotton swab, and the membrane was mounted on a slide. Migrating cells on the lower side of the membrane were observed under a high-power microscope, and the number of cells was measured from the obtained images and expressed as the inhibition rate (% inhibition) compared to the control group.

Raw264.7 cells = test: KARS1-induced trans-migration assay; assay type: cell-based, mouse; conditions: Mus musculus, RAW264.7; 1 µM compound; read-out: KARS1-induced Raw264.7 cell migration (% inhibition, 1uM)
Procedure: C0001 inhibits the binding of KARS1 and 67LR, thereby blocking the migration of monocytes/macrophages and suppressing inflammation. Accordingly, a trans-migration assay using mouse macrophages (Raw264.7) was conducted to preliminarily screen drugs that inhibit the migration of monocytes/macrophages.
Based on this, when KARS1 protein was directly treated externally instead of LN, the trans-migration of Raw264.7 was induced, and the cell migration inhibitory effect of the KARS1 inhibitor C0001 was confirmed. It was verified that C0001, which specifically binds to KARS1, can inhibit cell migration by binding to extracellular KARS1, in addition to the mechanism of inhibiting cell membrane migration of KARS1 induced by laminin and its binding to 67LR, thereby enabling this analysis to be used as a direct method for evaluating in vitro activity against KARS1.
Next, preliminary candidate substances with high inhibitory activity at 1 µM were treated at concentrations of 0.1~4 µM for analysis.

KARS1 and 37LR = target: T1, KARS1 and 37LR (Homo sapiens, UniProt Q15046); test: Cell-free ELISA of KARS1 and 37LR (laminin receptor) binding; conditions: 10 µM compound, 1 hour, plate coated with KARS1 (1-207aa), LRF
T1 construct: KARS1 (1-207aa)
Procedure: Next, based on the mechanism of action, a cell-free ELISA analysis was conducted to select compounds with high inhibitory activity on the binding of KARS1 and LR (laminin receptor).

[1] = Microsomal metabolic stability, human; assay type: in vitro ADME
Procedure: (§1) Metabolic stability (MS) evaluation was conducted for the selected compounds by measuring in vitro stability in two species, rat and human, according to the microsomal stability measurement method. As a result, it was identified that MS varied depending on the transformation of parts A, B, and C.

[2] = Microsomal metabolic stability, rat; assay type: in vitro ADME
Procedure: as §1

T1 sequence (Q15046 1-207): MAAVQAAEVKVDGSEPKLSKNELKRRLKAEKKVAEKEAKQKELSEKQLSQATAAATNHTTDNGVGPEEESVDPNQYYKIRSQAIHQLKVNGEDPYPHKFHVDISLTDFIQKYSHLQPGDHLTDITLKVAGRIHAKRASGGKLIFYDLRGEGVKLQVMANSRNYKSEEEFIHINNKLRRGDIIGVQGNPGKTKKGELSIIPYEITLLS

C#Cc1ccc(CN(CCc2ccc(OC)cc2)c2ncc3ccn(C)c3n2)cc1 [Compound 11, N-(4-ethynylbenzyl)-N-(4-methoxyphenethyl)-7-methyl-7H-pyrrolo[2,3-d]pyrimidin-2-amine]
inhibition at 3 µM (Raw 264.7 cells): 12%
inhibition at 1 µM (Raw264.7 cells): 37.8%
inhibition at 10 µM (KARS1 and 37LR): 3%

COc1ccc(CCN(Cc2ccc(C#CC(=O)O)cc2)c2ncc3ccn(C)c3n2)cc1 [Compound 12, 3-(4-(((4-methoxyphenethyl)(7-methyl-7H-pyrrolo[2,3-d]pyrimidin-2-yl)amino)methyl)phenyl)propiolic acid]
inhibition at 3 µM (Raw 264.7 cells): 43%
inhibition at 1 µM (Raw264.7 cells): 55.1%
inhibition at 10 µM (KARS1 and 37LR): 57.9%

COc1ccc(CCN(Cc2ccc(N3CCC(C(=O)O)C3)cc2)c2nc3cccc(F)c3s2)cc1 (stereo not shown) [Compound 13, 1-(4-(((7-fluorobenzo[d]thiazol-2-yl)(4-methoxyphenethyl)amino)-methyl)phenyl)pyrrolidine-3-carboxylic acid]
Metabolic stability (% remaining at 30 min) Human [1]: 74%
inhibition at 3 µM (Raw 264.7 cells): 90%
Metabolic stability (% remaining at 30 min) Rat [2]: 90%
inhibition at 1 µM (Raw264.7 cells): 93.4%
inhibition at 10 µM (KARS1 and 37LR): 83.9%

COc1ccc(CCN(Cc2ccc(C(=O)N3CCC[C@H]3C(=O)O)cc2)c2nc3cccc(F)c3s2)cc1 [Compound 14, (4-(((7-fluorobenzo[d]thiazol-2-yl)(4-methoxyphenethyl)amino)-methyl)benzoyl)-L-proline]
inhibition at 3 µM (Raw 264.7 cells): 32%
inhibition at 1 µM (Raw264.7 cells): 73.4%
inhibition at 10 µM (KARS1 and 37LR): 100%

COc1ccc(CCN(Cc2ccc(C(=O)N3CCC(C(=O)O)C3)cc2)c2nc3cccc(F)c3s2)cc1 (stereo not shown) [Compound 15, 1-(4-(((7-fluorobenzo[d]thiazol-2-yl)(4-methoxyphenethyl)amino)-methyl)benzoyl)pyrrolidine-3-carboxylic acid]
inhibition at 3 µM (Raw 264.7 cells): 0%
inhibition at 1 µM (Raw264.7 cells): 54.4%
inhibition at 10 µM (KARS1 and 37LR): 86.4%

COc1ccc(CCN(Cc2ccc(C(=O)NCC(=O)O)cc2)c2nc3cccc(F)c3s2)cc1 [Compound 16, (4-(((7-fluorobenzo[d]thiazol-2-yl)(4-methoxyphenethyl)amino)-methyl)benzoyl)glycine]
inhibition at 3 µM (Raw 264.7 cells): 33%
inhibition at 1 µM (Raw264.7 cells): 86.2%
inhibition at 10 µM (KARS1 and 37LR): 68.2%

COc1ccc(CCN(Cc2cccc(N3CCC(C(=O)O)C3)c2)c2nc3cccc(F)c3s2)cc1 (stereo not shown) [Compound 17, 1-(3-(((7-fluorobenzo[d]thiazol-2-yl)(4-methoxyphenethyl)amino)-methyl)phenyl)pyrrolidine-3-carboxylic acid]
Metabolic stability (% remaining at 30 min) Human [1]: 58%
inhibition at 3 µM (Raw 264.7 cells): 42%
Metabolic stability (% remaining at 30 min) Rat [2]: 71%
inhibition at 1 µM (Raw264.7 cells): 5.6%
inhibition at 10 µM (KARS1 and 37LR): 79%

COc1ccc(CCN(Cc2ccc(C(=O)N[C@@H](C(=O)O)C(C)C)cc2)c2nc3cccc(F)c3s2)cc1 [Compound 18, (4-(((7-fluorobenzo[d]thiazol-2-yl)(4-methoxyphenethyl)amino)-methyl)benzoyl)-D-valine]
inhibition at 3 µM (Raw 264.7 cells): 9%
inhibition at 1 µM (Raw264.7 cells): 31%
inhibition at 10 µM (KARS1 and 37LR): 86.2%

COc1ccc(CCN(Cc2ccc(N3CCC[C@H]3C(=O)O)cc2)c2nc3cccc(F)c3s2)cc1 [Compound 19, (4-(((7-fluorobenzo[d]thiazol-2-yl)(4-methoxyphenethyl)amino)-methyl)phenyl)-L-proline]
inhibition at 3 µM (Raw 264.7 cells): 15%
inhibition at 1 µM (Raw264.7 cells): 69%
inhibition at 10 µM (KARS1 and 37LR): 75.8%

COc1ccc(CCN(Cc2cccc(N3CCC[C@H]3C(=O)O)c2)c2nc3cccc(F)c3s2)cc1 [Compound 20, (3-(((7-fluorobenzo[d]thiazol-2-yl)(4-methoxyphenethyl)amino)-methyl)phenyl)-L-proline]
inhibition at 3 µM (Raw 264.7 cells): 18%
inhibition at 1 µM (Raw264.7 cells): 49.1%
inhibition at 10 µM (KARS1 and 37LR): 3.4%

COc1ccc(CCN(Cc2nc3ccc(B(O)O)cc3n2C)c2nc3cccc(F)c3s2)cc1 [Compound 21, (2-(((7-fluorobenzo[d]thiazol-2-yl)(4-methoxyphenethyl)amino)-methyl)-1-methyl-1H-benzo[d]imidazol-6-yl)boronic acid]
inhibition at 3 µM (Raw 264.7 cells): 36%
inhibition at 1 µM (Raw264.7 cells): 26.1%
inhibition at 10 µM (KARS1 and 37LR): 8.9%

COc1ccc(CCN(Cc2cccc(N3CC[C@H](C(=O)O)C3)c2)c2nc3cccc(F)c3s2)cc1 [Compound 22, (S)-1-(3-(((7-fluorobenzo[d]thiazol-2-yl)(4-methoxyphenethyl)amino)-methyl)phenyl)pyrrolidine-3-carboxylic acid]
inhibition at 3 µM (Raw 264.7 cells): 19%
inhibition at 1 µM (Raw264.7 cells): 43.4%
inhibition at 10 µM (KARS1 and 37LR): 52%

COc1ccc(CCN(Cc2cccc(N3CC[C@@H](C(=O)O)C3)c2)c2nc3cccc(F)c3s2)cc1 [Compound 23, (R)-1-(3-(((7-fluorobenzo[d]thiazol-2-yl)(4-methoxyphenethyl)amino)-methyl)phenyl)pyrrolidine-3-carboxylic acid]
inhibition at 3 µM (Raw 264.7 cells): 59%
inhibition at 1 µM (Raw264.7 cells): 35.4%
inhibition at 10 µM (KARS1 and 37LR): 71.6%

COc1ccc(CCN(Cc2ccc(N3CC[C@@H](C(=O)O)C3)cc2)c2nc3cccc(F)c3s2)cc1 [Compound 24, (R)-1-(4-(((7-fluorobenzo[d]thiazol-2-yl)(4-methoxyphenethyl)-amino)methyl)phenyl)pyrrolidine-3-carboxylic acid]
inhibition at 3 µM (Raw 264.7 cells): 68%
inhibition at 1 µM (Raw264.7 cells): 96.3%
inhibition at 10 µM (KARS1 and 37LR): 65.9%

COc1ccc(CCN(Cc2ccc(-c3ccc(C(=O)O)o3)cc2)c2nc3cccc(F)c3s2)cc1 [Compound 26, 5-(4-(((7-fluorobenzo[d]thiazol-2-yl)(4-methoxyphenethyl)amino)-methyl)phenyl)furan-2-carboxylic acid]
inhibition at 3 µM (Raw 264.7 cells): 48%
inhibition at 1 µM (Raw264.7 cells): 80.6%
inhibition at 10 µM (KARS1 and 37LR): 78.4%

COc1ccc(CCN(Cc2nc3ccc(C(=O)O)cc3n2C)c2nc3cccc(F)c3s2)cc1 [Compound 27, 2-(((7-fluorobenzo[d]thiazol-2-yl)(4-methoxyphenethyl)amino)methyl)-1-methyl-1H-benzo[d]imidazole-6-carboxylic acid]
inhibition at 3 µM (Raw 264.7 cells): 9%
inhibition at 1 µM (Raw264.7 cells): 9.1%
inhibition at 10 µM (KARS1 and 37LR): 14%

COc1ccc(CCN(Cc2ccc3c(c2)CN(C(N)=O)C3)c2nc3cccc(F)c3s2)cc1 [Compound 30, 5-(((7-fluorobenzo[d]thiazol-2-yl)(4-methoxyphenethyl)amino)-methyl)isoindoline-2-carboxamide]
inhibition at 3 µM (Raw 264.7 cells): 37.4%
inhibition at 1 µM (Raw264.7 cells): 3.2%
inhibition at 10 µM (KARS1 and 37LR): 64%

COc1ccc(CCN(Cc2ccc3c(c2)CN(CC(=O)O)C3)c2nc3cccc(F)c3s2)cc1 [Compound 32, 2-(5-(((7-fluorobenzo[d]thiazol-2-yl)(4-methoxyphenethyl)amino)-methyl)isoindolin-2-yl)acetic acid]
inhibition at 3 µM (Raw 264.7 cells): 45%
inhibition at 1 µM (Raw264.7 cells): 18.1%
inhibition at 10 µM (KARS1 and 37LR): -27.9%

COc1ccc(CCN(Cc2ccc(NC3(C(=O)O)CCC3)cc2)c2nc3cccc(F)c3s2)cc1 [Compound 33, 1-((4-(((7-fluorobenzo[d]thiazol-2-yl)(4-methoxyphenethyl)amino)-methyl)phenyl)amino)cyclobutane-1-carboxylic acid]
inhibition at 3 µM (Raw 264.7 cells): 15.7%
inhibition at 1 µM (Raw264.7 cells): 57.6%
inhibition at 10 µM (KARS1 and 37LR): 41.9%

COc1ccc(CCN(Cc2ccc(N3CC(C(=O)O)C3)cc2)c2nc3cccc(F)c3s2)cc1 [Compound 39, 1-(4-(((7-fluorobenzo[d]thiazol-2-yl)(4-methoxyphenethyl)amino)-methyl)phenyl)azetidine-3-carboxylic acid]
inhibition at 3 µM (Raw 264.7 cells): 51.9%
inhibition at 1 µM (Raw264.7 cells): 97.4%
inhibition at 10 µM (KARS1 and 37LR): 37.5%

O=C(O)[C@@H]1CCN(c2cccc(CN(CCc3ccc(OC(F)(F)F)cc3)c3nc4cccc(F)c4s3)c2)C1 [Compound 40, (R)-1-(3-(((7-fluorobenzo[d]thiazol-2-yl)(4-(trifluoromethoxy)-phenethyl)amino)methyl)phenyl)pyrrolidine-3-carboxylic acid]
inhibition at 3 µM (Raw 264.7 cells): 37.7%
inhibition at 1 µM (Raw264.7 cells): 76.1%
inhibition at 10 µM (KARS1 and 37LR): 66.7%
